# Test results reported in patent US12564589B2, “Methods for treating cancer, reducing side effects of cancer treatment, and preventing the recurrence of cancer” (Florida State University Research Foundation, Inc., priority 2024, dated 2026).
# Legend:
# [1] = tested on: H3.3KD cells; assay: Viability by flow cytometry (Live/Dead staining) after DNA damaging agents; type: cell-based, human
# Experimental: FIGS. 1A-1G show replacement histone variant H3.3 is rapidly recruited to DNA damage sites and cells deficient in H3.3 accumulate endogenous damage, while also being hypersensitive to DNA damaging agents. FIG. 1A: Histone variant H3.3 is rapidly recruited to sites of laser induced DNA damage in living cells. HCT116 human colon carcinoma cells were transiently co-transfected with expression constructs for H3.3-mEmerald and RFP-PCNA. […] Percent recruitment was calculated by dividing the number of cells recruiting H3.3 by the number of cells recruiting PCNA in the same cells. n=number of cells analyzed. […] The percentage knockdown for each clone shown at the bottom of the lanes was quantitated by measuring fluorescence intensity of the H3.3 band relative to the signal from the H4 band on a Li-Cor Odyssey imager. […] The presence of endogenous damage in H3.3KD and control LUC cells was determined by Western blotting of whole cell extracts using the indicated antibodies. […] 48 hours after MMS treatment, the viability of the cells was scored by flow cytometry using the violet fluorescent Live/Dead cell staining kit (Invitrogen) following the manufacturer's instructions. […] Significant differences between treatments are indicated by p values determined using a t-test. […]
# [2] = tested on: Budding yeast strains carrying H3G34R mutant; assay: Yeast viability by colony enumeration after genotoxic agents; type: cell-based; conditions: 90 minutes treatment
# Experimental: FIGS. 8A-8G show deficiency of H3.3 in cells from multiple species results in accumulation of genomic instability and endogenous DNA damage, as well as hypersensitivity to DNA damaging agents. (FIG. 8A) Enhanced rate of micronuclei formation in H3.3KD cells. Micronuclei score was determined as described previously from 1000 LUC and H3.3KD cells. The difference between LUC and H3.3 was trending towards significance (p=0.12). (FIG. 8B) Increased incidence of lagging chromosomes during mitosis in H3.3KD cells. Quantitation of lagging chromosomes from 100 anaphases in LUC and H3.3KD cells is shown. (FIG. 8C) Flies deficient in H3.3 accumulate endogenous DNA damage. Western blot showing the levels of γH2A.v (the fly homolog of mammalian γH2A.X) in adult flies of the indicated genotypes: wild-type (WT; Oregon-R), heterozygous (het, with just one H3.3 allele) and rescue (res, which completely lacks H3.3, but its sterility is rescued by an extra copy of H3.2 driven by the H3.3B promoter). A sample from flies treated with 10 Gy IR is included as a positive control for γH2A.v signal. […] 100 third instar Drosophila larvae from WT and heterozygous (H3.3 Het) genotype carrying just one out of four alleles of H3.3 were exposed to either IR or ultra violet (UV) light and their development into adult flies was monitored for over two weeks. […] Viable flies remaining were scored daily for a week. […]
smiles,measurement,setting,value
NC(Cn1ccc(=O)c(O)c1)C(=O)O (stereo not drawn) [Mimosine],sensitivity of H3.3 KD cells compared to control LUC cells,[1]; 0.5 mM Mimo,very sensitive
"COS(C)(=O)=O [MMS, methyl methane sulfonate]",sensitivity of H3G34R yeast compared to wild-type,[2],hypersensitive
same,sensitivity of H3.3 KD cells compared to control LUC cells,"[1]; 0.0175% MMS for 2 hours, viability 48 hours after",very sensitive
